# Literature values, collected in US20150118313A1, “ENHANCED FOLIC ACID FLUORESCENT MATERIAL, MULTIFLUORESCENT POROUS COMPOSITIONS OF MATTER AND POTENTIAL APPLICATIONS THEREOF” (Nanologica AB, priority 2010, published 2015).
# “Also recorded” adds a separate entry of the source.
# Assays:
# [1] = aqueous solvent; solubility is dependent on pH
# [2] = weak acid, neutralized in the range of pH 5-7
Structure (SMILES),solubility in aqueous solution [1],pKa [2]
"O=C(O)c1ccc(-c2c3nc(c(-c4ccc(C(=O)O)cc4)c4ccc([nH]4)c(-c4ccc(C(=O)O)cc4)c4nc(c(-c5ccc(C(=O)O)cc5)c5ccc2[nH]5)C=C4)C=C3)cc1 [TCPP, Meso-tetrakis (4-carboxyphenyl) porphyrin]",scarcely soluble; also recorded: poor solubility,6.6
Nc1nc2ncc(CNc3ccc(C(=O)N[C@@H](CCC(=O)O)C(=O)O)cc3)nc2c(=O)[nH]1 [folic acid],poor solubility,–
